Each structure is given as a SMILES string. Several values for one entry are separate records, joined by “and”; a condition that tells them apart may be missing. Identical values can stand only once. Inconclusive results and toxic doses are left out.

The experiment deals with BDF1 mice, P388 leukemia ip, median survival T/C. As to the kind of experiment: NCI In Vivo Anticancer Drug Screen. Data for tumor model P388 Leukemia (intraperitoneal) in B6D2F1 (BDF1) mice. The conditions noted are these: endpoint: median survival time, higher = longer survival. Summed up: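 Transplantable tumour in mice; compound vs vehicle dosing; survival scored; ratio of treated to control reported.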

The mark [1] stands for this setting: dose: 50.0 mg/kg/injection, schedule: Q01DX009 (ip), vehicle: saline with Tween-80.
The mark [2] stands for this setting: dose: 100.0 mg/kg/injection, schedule: Q01DX009 (ip), vehicle: saline with Tween-80.
[3] abbreviates: dose: 200.0 mg/kg/injection, schedule: Q01DX009 (ip), vehicle: saline with Tween-80.
[4] abbreviates: dose: 25.0 mg/kg/injection, schedule: Q01DX009 (ip), vehicle: saline.
The mark [5] stands for this setting: dose: 50.0 mg/kg/injection, schedule: Q01DX009 (ip), vehicle: saline.
Setting [6] is: dose: 50.0 mg/kg/injection, schedule: Q01DX009 (ip), vehicle: Klucel (hydroxypropylcellulose) (HPC).
Setting [7] is: dose: 400.0 mg/kg/injection, schedule: Q01DX009 (ip), vehicle: saline with Tween-80.
Setting [8] is: dose: 200.0 mg/kg/injection, schedule: Q04DX003 (ip), vehicle: Klucel (hydroxypropylcellulose) (HPC).

As for `Nc1ccc(C(OC(=O)c2cc3ccccc3c(Cc3c(O)c(C(=O)OC(c4ccc(N)cc4)(c4ccc(N)cc4)c4ccc(N)cc4)cc4ccccc34)c2O)(c2ccc(N)cc2)c2ccc(N)cc2)cc1`, the T/C (dose: 12.5 mg/kg/injection, schedule: Q01DX009 (ip), vehicle: saline with Tween-80) was 150 % of control.
With `O=c1oc2c(c(N(c3ccccc3)c3ccccc3)c1Cl)CSc1ccccc1-2`, the T/C (dose: 25.0 mg/kg/injection, schedule: Q04DX003 (ip), vehicle: saline with Tween-80) was 100 % of control; the T/C (dose: 50.0 mg/kg/injection, schedule: Q04DX003 (ip), vehicle: saline with Tween-80) is 93 % of control; the T/C (dose: 100.0 mg/kg/injection, schedule: Q04DX003 (ip), vehicle: saline with Tween-80) was 90 % of control.
As for `CC(=O)C(O)c1c(O)cc(C)[nH]c1=O` (stereo unspecified), the T/C is, setting by setting: under setting [1], 100 % of control; under setting [2], 97 % of control; under setting [3], 98 % of control.
Consider `CNC1C(O)C(NC)C2OC3(O)C(=O)CC(C)OC3OC2C1O` (stereo unspecified), for which the T/C was 112 % of control (dose: 6.25 mg/kg/injection, schedule: Q01DX009 (ip), vehicle: saline); 106 % of control (dose: 12.5 mg/kg/injection, schedule: Q01DX009 (ip), vehicle: saline); 97 % of control under setting [4]; 106 % of control under setting [5].
`CC(=O)N(/N=C/c1cc(C=O)n(-c2ccccc2)n1)c1ccccc1`: the T/C was 86 % of control under setting [1], 90 % of control under setting [2] and 105 % of control under setting [3].
With `CN(C)c1ccc(Nc2c3ccccc3nc3ccccc23)cc1`, the T/C is, setting by setting: (dose: 36.0 mg/kg/injection, schedule: Q01DX010 (ip), vehicle: saline) 159 % of control and 172 % of control; (dose: 54.0 mg/kg/injection, schedule: Q01DX010 (ip), vehicle: saline) 159 % of control and 172 % of control; (dose: 80.0 mg/kg/injection, schedule: Q01DX010 (ip), vehicle: saline) 213 % of control and 218 % of control; (dose: 120.0 mg/kg/injection, schedule: Q01DX010 (ip), vehicle: saline) 268 % of control.
For `COC(=O)Nc1cccc(-c2nc3ccc(NC(=O)OC)cc3c(=O)n2-c2ccccc2)c1`, the T/C by setting is: (dose: 6.25 mg/kg/injection, schedule: Q01DX009 (ip), vehicle: Klucel (hydroxypropylcellulose) (HPC)) 108 % of control; (dose: 12.5 mg/kg/injection, schedule: Q01DX009 (ip), vehicle: Klucel (hydroxypropylcellulose) (HPC)) 117 % of control; under setting [4], 150 % of control; (dose: 25.0 mg/kg/injection, schedule: Q01DX009 (oral), vehicle: Klucel (hydroxypropylcellulose) (HPC)) 107 % of control; under setting [6], 213 % of control; under setting [5], 155 % of control. In addition, the T/C is, setting by setting: (dose: 50.0 mg/kg/injection, schedule: Q01DX009 (oral), vehicle: Klucel (hydroxypropylcellulose) (HPC)) 109 % of control; (dose: 100.0 mg/kg/injection, schedule: Q01DX009 (ip), vehicle: saline) 186 % of control; (dose: 100.0 mg/kg/injection, schedule: Q01DX009 (oral), vehicle: Klucel (hydroxypropylcellulose) (HPC)) 109 % of control; (dose: 800.0 mg/kg/injection, schedule: Q01DX009 (oral), vehicle: Klucel (hydroxypropylcellulose) (HPC)) 155 % of control.
Turning to `O=C(c1ccncc1)c1c(Cc2ccccc2)ccc2ccccc12`, the T/C reads like this: under setting [1], 92 % of control; under setting [2], 96 % of control; under setting [3], 90 % of control; under setting [7], 92 % of control.
`CCN(CC)CCNc1ccc(N=Nc2ccc(SC)cc2)c2ccccc12`: the T/C is 105 % of control (dose: 25.0 mg/kg/injection, schedule: Q01DX009 (ip), vehicle: Klucel (hydroxypropylcellulose) (HPC)); 100 % of control under setting [6]; 100 % of control (dose: 50.0 mg/kg/injection, schedule: Q04DX003 (ip), vehicle: Klucel (hydroxypropylcellulose) (HPC)); 105 % of control (dose: 100.0 mg/kg/injection, schedule: Q01DX009 (ip), vehicle: Klucel (hydroxypropylcellulose) (HPC)); 104 % of control (dose: 100.0 mg/kg/injection, schedule: Q04DX003 (ip), vehicle: Klucel (hydroxypropylcellulose) (HPC)); 90 % of control under setting [8].
In the case of `COC(=O)CSc1ncc2cnccn12`, the T/C runs as follows: (dose: 100.0 mg/kg/injection, schedule: Q04DX003 (ip), vehicle: water) 109 % of control; (dose: 200.0 mg/kg/injection, schedule: Q04DX003 (ip), vehicle: water) 100 % of control; (dose: 400.0 mg/kg/injection, schedule: Q04DX003 (ip), vehicle: water) 109 % of control.
Turning to `ClC1=C(Cl)C2(Cl)C3C4CC(C5OC45)C3C1(Cl)C2(Cl)Cl` (stereo unspecified), the T/C (dose: 3.13 mg/kg/injection, schedule: Q01DX009 (ip), vehicle: suspension in saline) was 96 % of control.
In the case of `COc1ccc(CCNC(=S)NCCc2ccc(OC)c(OC)c2)cc1OC`, the T/C is 100 % of control (dose: 50.0 mg/kg/injection, schedule: Q01DX001 (ip), vehicle: Klucel (hydroxypropylcellulose) (HPC)); 100 % of control (dose: 100.0 mg/kg/injection, schedule: Q01DX001 (ip), vehicle: Klucel (hydroxypropylcellulose) (HPC)); 90 % of control (dose: 200.0 mg/kg/injection, schedule: Q01DX001 (ip), vehicle: Klucel (hydroxypropylcellulose) (HPC)).
Regarding `Oc1ccccc1O.[O-]c1ccccc1[O-].[O-]c1ccccc1[O-].[O]=[V+2]`, the T/C reads like this: (dose: 9.37 mg/kg/injection, schedule: Q01DX009 (ip), vehicle: saline) 89 % of control; (dose: 9.37 mg/kg/injection, schedule: Q04DX003 (ip), vehicle: saline) 100 % of control; (dose: 18.75 mg/kg/injection, schedule: Q01DX009 (ip), vehicle: saline) 94 % of control; (dose: 18.75 mg/kg/injection, schedule: Q04DX003 (ip), vehicle: saline) 109 % of control; (dose: 24.0 mg/kg/injection, schedule: Q04DX003 (ip), vehicle: saline) 104 % of control; (dose: 24.7 mg/kg/injection, schedule: Q04DX003 (ip), vehicle: saline) 100 % of control. Also, the T/C was 105 % of control (dose: 37.0 mg/kg/injection, schedule: Q04DX003 (ip), vehicle: saline); 89 % of control (dose: 37.5 mg/kg/injection, schedule: Q01DX009 (ip), vehicle: saline); 100 % of control (dose: 37.5 mg/kg/injection, schedule: Q04DX003 (ip), vehicle: saline); 100 % of control (dose: 55.0 mg/kg/injection, schedule: Q04DX003 (ip), vehicle: saline); 90 % of control (dose: 55.5 mg/kg/injection, schedule: Q04DX003 (ip), vehicle: saline).
As for `CSC(=S)NN=C1CCCCC1`, the T/C by setting is: (dose: 0.78 mg/kg/injection, schedule: Q01DX009 (ip), vehicle: saline with Tween-80) 99 % of control; (dose: 1.56 mg/kg/injection, schedule: Q01DX009 (ip), vehicle: saline with Tween-80) 105 % of control; (dose: 3.13 mg/kg/injection, schedule: Q01DX009 (ip), vehicle: saline with Tween-80) 104 % of control; (dose: 6.25 mg/kg/injection, schedule: Q01DX009 (ip), vehicle: saline with Tween-80) 102 % of control.
As for `NC(=S)N/N=C\c1nccc2ccc(N)cc12`, under setting [1], the T/C is 157 % of control.
Consider `S=c1[nH]c2nccnc2[nH]1`, for which the T/C (dose: 25.0 mg/kg/injection, schedule: Q01DX009 (ip), vehicle: saline with Tween-80) is 95 % of control; the T/C under setting [1] is 100 % of control; the T/C under setting [2] was 95 % of control; the T/C under setting [3] is 95 % of control; the T/C under setting [7] was 104 % of control.
For the compound `CCC1CN1CC1CO1` (stereo unspecified), the T/C reads like this: (dose: 8.3 mg/kg/injection, schedule: Q04DX003 (ip), vehicle: Klucel (hydroxypropylcellulose) (HPC)) 110 % of control; (dose: 12.0 mg/kg/injection, schedule: Q04DX003 (ip), vehicle: Klucel (hydroxypropylcellulose) (HPC)) 120 % of control; (dose: 29.0 mg/kg/injection, schedule: Q04DX003 (ip), vehicle: Klucel (hydroxypropylcellulose) (HPC)) 119 % of control; under setting [8], 204 % of control; (dose: 300.0 mg/kg/injection, schedule: Q04DX003 (ip), vehicle: Klucel (hydroxypropylcellulose) (HPC)) 190 % of control and 218 % of control.
For `CCOC(=O)/C(C#N)=N\O`, the T/C under setting [4] was 100 % of control; the T/C (dose: 25.0 mg/kg/injection, schedule: Q04DX003 (ip), vehicle: saline) is 113 % of control; the T/C under setting [5] is 120 % of control; the T/C (dose: 50.0 mg/kg/injection, schedule: Q04DX003 (ip), vehicle: saline) was 104 % of control; the T/C (dose: 100.0 mg/kg/injection, schedule: Q04DX003 (ip), vehicle: saline) is 95 % of control.

The values above are taken from PubChem BioAssay AID328 (DTP/NCI, 2004).
